Experimental data: patent publication US10738028B2, “Spiro three-membered ring, spiro five-membered ring peptide deformylase inhibitor and use thereof in antibacteria and anti-tumor” (priority 2016, dated 2020)
Converted amounts (≈) assume the structure as drawn.

Tests used:
Assay type in all cases: cell-based
[1] = system: methicillin-sensitive Staphylococcus epidermidis (MSSE); assay: MIC, two-fold agar dilution (CLSI), clinical isolates
Excerpt: (§1) 1. The invention adopts the two-fold agar dilution method recommended by the operating procedure of antimicrobial susceptibility testing set by American Clinical and Laboratory Standards Institute (CLSI) to determine the Minimum Inhibitory Concentration (MIC) of the test samples against the tested strains.

[2] = system: methicillin-resistant Staphylococcus aureus (MRSA); assay: as above
Excerpt: as §1

[3] = system: methicillin-sensitive Staphylococcus aureus (MSSA); assay: as above
Excerpt: as §1

[4] = system: Enterococcus faecalis (EFA); assay: as above
Excerpt: as §1

[5] = system: Enterococcus faecium (EFM); assay: as above
Excerpt: as §1

[6] = system: methicillin-resistant Staphylococcus epidermidis (MRSE); assay: as above
Excerpt: as §1

[7] = system: Streptococcus pneoumoniae (SPN); assay: as above
Excerpt: as §1

[8] = system: Moraxella catarrhalis (BCA); assay: as above
Excerpt: as §1

[9] = system: Escherichia coli (including ESBLs, non-ESBLs); assay: as above
Excerpt: as §1

[10] = system: HCT-116 colorectal cancer cell line; assay: CCK-8 proliferation inhibition; conditions: Homo sapiens, HCT-116, 72 h, concentration of 30 μM; 72 hours; CCK-8; read-out: HCT116 inhibition rate/%
Outline: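 Cells were plated overnight at 2000 cells/well, then compound in culture medium was added at a range of final concentrations. After 72 hours in a CO2 incubator, medium was replaced with 1:10 CCK-8 solution for the read-out.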

SMILES: O=CN(O)C[C@@H](CC1CCCC1)C(=O)N1CC2(CC2)C[C@H]1C(=O)Nc1cnccn1 [Example 26]
- MIC (anti-bacterial activity) ([1]; strain MSSE 15-3): 0.125 µg/mL (≈ 0.301 µM)
- MIC (anti-bacterial activity) ([1]; strain MSSE 15-4): 0.5 µg/mL (≈ 1.2 µM)
- MIC (anti-bacterial activity) ([1]; strain MSSE 15-5): 0.5 µg/mL (≈ 1.2 µM)
- MIC (anti-bacterial activity) ([1]; strain MSSE 15-6): 0.5 µg/mL (≈ 1.2 µM)
- MIC (anti-bacterial activity) ([2]; strain MRSA 15-1): 0.25 µg/mL (≈ 0.602 µM)
- MIC (anti-bacterial activity) ([2]; strain MRSA 15-2): 0.25 µg/mL (≈ 0.602 µM)
- MIC (anti-bacterial activity) ([2]; strain MRSA 15-3): 0.25 µg/mL (≈ 0.602 µM)
- MIC (anti-bacterial activity) ([2]; strain MRSA 15-4): 0.25 µg/mL (≈ 0.602 µM)
- MIC (anti-bacterial activity) ([3]; strain MSSA 15-3): 0.25 µg/mL (≈ 0.602 µM)
- MIC (anti-bacterial activity) ([3]; strain MSSA 15-4): 0.25 µg/mL (≈ 0.602 µM)
- MIC (anti-bacterial activity) ([3]; strain MSSA 15-5): 0.25 µg/mL (≈ 0.602 µM)
- MIC (anti-bacterial activity) ([3]; strain MSSA 15-6): 0.25 µg/mL (≈ 0.602 µM)
- MIC (anti-bacterial activity) ([4]; strain EFA 15-1): 2 µg/mL (≈ 4.81 µM)
- MIC (anti-bacterial activity) ([4]; strain EFA 15-2): 2 µg/mL (≈ 4.81 µM)
- MIC (anti-bacterial activity) ([4]; strain EFA 15-3): 0.5 µg/mL (≈ 1.2 µM)
- MIC (anti-bacterial activity) ([4]; strain EFA 15-4): 2 µg/mL (≈ 4.81 µM)
- MIC (anti-bacterial activity) ([4]; strain EFA 15-5): 2 µg/mL (≈ 4.81 µM)
- MIC (anti-bacterial activity) ([4]; strain EFA 15-6): 2 µg/mL (≈ 4.81 µM)
- MIC (anti-bacterial activity) ([4]; strain EFA 15-9): 2 µg/mL (≈ 4.81 µM)
- MIC (anti-bacterial activity) ([5]; strain EFM 15-1): 0.5 µg/mL (≈ 1.2 µM)
- MIC (anti-bacterial activity) ([5]; strain EFM 15-2): 0.5 µg/mL (≈ 1.2 µM)
- MIC (anti-bacterial activity) ([5]; strain EFM 15-3): 0.25 µg/mL (≈ 0.602 µM)
- MIC (anti-bacterial activity) ([5]; strain EFM 15-4): 0.5 µg/mL (≈ 1.2 µM)
- MIC (anti-bacterial activity) ([5]; strain EFM 15-5): 0.25 µg/mL (≈ 0.602 µM)
- MIC (anti-bacterial activity) ([5]; strain EFM 15-6): 0.5 µg/mL (≈ 1.2 µM)
- MIC (anti-bacterial activity) ([6]; strain MRSE 15-1): 0.125 µg/mL (≈ 0.301 µM)
- MIC (anti-bacterial activity) ([6]; strain MRSE 15-2): 0.5 µg/mL (≈ 1.2 µM)
- MIC (anti-bacterial activity) ([6]; strain MRSE 15-3): 0.5 µg/mL (≈ 1.2 µM)
- MIC (anti-bacterial activity) ([6]; strain MRSE 15-7): 0.5 µg/mL (≈ 1.2 µM)
- MIC (anti-bacterial activity) ([7]; strain SPN 16-2): 0.25 µg/mL (≈ 0.602 µM)
- MIC (anti-bacterial activity) ([7]; strain SPN 16-4): 2 µg/mL (≈ 4.81 µM)
- MIC (anti-bacterial activity) ([8]; strain BCA 14-1): 0.5 µg/mL (≈ 1.2 µM)
- MIC (anti-bacterial activity) ([8]; strain BCA 14-4): 0.5 µg/mL (≈ 1.2 µM)
- MIC (anti-bacterial activity) ([8]; strain BCA 14-5): 0.25 µg/mL (≈ 0.602 µM)
- MIC (anti-bacterial activity) ([8]; strain BCA 14-6): 0.5 µg/mL (≈ 1.2 µM)
- MIC (anti-bacterial activity) ([8]; strain BCA 14-7): 0.25 µg/mL (≈ 0.602 µM)
- MIC (anti-bacterial activity) ([8]; strain BCA 14-8): 0.5 µg/mL (≈ 1.2 µM)
- MIC (anti-bacterial activity) ([8]; strain BCA 14-10): 0.25 µg/mL (≈ 0.602 µM)
- MIC (anti-bacterial activity) ([9]; strain ECO+ 15-1): 32 µg/mL (≈ 77 µM)
- MIC (anti-bacterial activity) ([9]; strain ECO+ 15-2): 32 µg/mL (≈ 77 µM)
- MIC (anti-bacterial activity) ([9]; strain ECO+ 15-3): 32 µg/mL (≈ 77 µM)
- MIC (anti-bacterial activity) ([9]; strain ECO+ 15-4): 32 µg/mL (≈ 77 µM)
- MIC (anti-bacterial activity) ([9]; strain ECO− 15-1): 32 µg/mL (≈ 77 µM)
- MIC (anti-bacterial activity) ([9]; strain ECO− 15-2): 32 µg/mL (≈ 77 µM)
- MIC (anti-bacterial activity) ([9]; strain ECO− 15-3): 32 µg/mL (≈ 77 µM)
- MIC (anti-bacterial activity) ([9]; strain ECO− 15-4): 32 µg/mL (≈ 77 µM)
- inhibition at 30 µM [10]: 18%
